The results in this text go back to PMC8286840, “Identifying SARS-CoV-2 antiviral compounds by screening for small molecule inhibitors of Nsp3 papain-like protease” (Biochemical Journal, 2021).

The target of test [1] is T1, SARS-CoV-2 PLpro (nsp3 1564–1878) (Severe acute respiratory syndrome coronavirus 2, UniProt P0DTD1). The test is described as follows: biochemical. The arrangement: FRET-quenched peptide (Pro3) cleavage by PLpro, 10 min pre-incubation, slope over 20 min, normalised to no-compound control. Conditions: high concentration screen, read-out: % of control remaining.
Test [2] addresses T1, SARS-CoV-2 PLpro (nsp3 1564–1878). The test is described as follows: biochemical. Conditions: low concentration screen, read-out: % of control remaining. On the set-up: FRET-quenched peptide (Pro3) cleavage by PLpro, 10 min pre-incubation, slope over 20 min, normalised to no-compound control.

Where a name gives a salt, the structure may show the parent alone. Read-outs that look alike come from different tables or passages of the source. Where a SMILES comes first, the peptide text is derived from it. [ ]: non-standard residue; d: D form. Dolaproine = CO[C@@H]([C@@H]1CCCN1)[C@@H](C)C(=O)O; Dil = CC[C@H](C)[C@H](NC)[C@@H](CC(=O)O)OC; NMeV = CN[C@H](C(=O)O)C(C)C

As to `Cc1cc(C)c(S(=O)(=O)Nc2cccc(C(F)(F)F)c2)c(C)c1` [m -3M3FBS], the remaining activity at 3.75 µM in test [1] (Well no.=5841) worked out at 98.2%. Moreover, the remaining activity at 1.25 µM in test [2] (Well no.=5841) came to 99.6%.

For `CN1CCN(c2c(F)cc3c(=O)c(C(=O)O)cn4c3c2SCC4)CC1` [Rufloxacin], the remaining activity at 3.75 µM in test [1] (Well no.=2239) was determined as 97.3%. In test [2] (Well no.=2239), the remaining activity at 1.25 µM worked out at 98.6%.

On to `O=C[C@H](O)[C@@H](O)[C@H](O)[C@H](O)COP(=O)(O)O` [D-Glucose 6-Phosphate], for which the remaining activity at 3.75 µM in test [1] (Well no.=7263) came out at 98.1%. The remaining activity at 1.25 µM in test [2] (Well no.=7263) was found to be 98.2%.

On to `COc1ccc(Cn2ccc3ccc(C(=O)NO)cc32)cc1` [PCI-34051], for which the remaining activity at 3.75 µM in test [1] (Well no.=4710) amounted to 103%. For the same compound, the remaining activity at 1.25 µM in test [2] (Well no.=4710) came out at 107%.

Consider `NC1=N[C@@]2(c3cc(NC(=O)c4ccc(F)cn4)ccc3F)COC[C@H]2CS1` [LY2886721], for which the remaining activity at 3.75 µM in test [1] (Well no.=4774) came to 102%. For the same compound, in test [2] (Well no.=4774), the remaining activity at 1.25 µM is 99.9%.

As to `CCN(CC)CCOC(=O)C(c1ccccc1)c1ccccc1` [Adiphenine HCl], the remaining activity at 3.75 µM in test [1] (Well no.=5060) worked out at 105%. The remaining activity at 1.25 µM in test [2] (Well no.=5060) amounted to 105%.

As for `N[C@@H](CCC(=O)N[C@@H](CSN=O)C(=O)NCC(=O)O)C(=O)O` [S-Nitrosoglutathione], in test [1] (Well no.=855), the remaining activity at 3.75 µM worked out at 104%. In test [2] (Well no.=855), the remaining activity at 1.25 µM worked out at 103%.

Regarding `O=C(NCCCNC(=O)c1ccc[nH]c1=O)c1cc(-c2ccccc2)on1` [ML327], in test [1] (Well no.=7164), the remaining activity at 3.75 µM is 93.7%. In addition, in test [2] (Well no.=7164), the remaining activity at 1.25 µM amounted to 101%.

For `O=C(O)C1CCCNC1` (racemic), the remaining activity at 3.75 µM in test [1] (Well no.=195) worked out at 97.6%. In test [2] (Well no.=195), the remaining activity at 1.25 µM turned out to be 102%.

For `CO[C@H]1CC=C2CCN3CCC4=C(CC(=O)OC4)[C@]23C1` [Dihydro-beta-erythroidine hydrobromide], in test [1] (Well no.=690), the remaining activity at 3.75 µM was found to be 88.6%. Also, in test [2] (Well no.=690), the remaining activity at 1.25 µM was found to be 88.8%.

For the compound `O=c1ccn([C@@H]2O[C@H](COP(=O)(O)OP(=O)(O)OP(=O)(O)O)[C@@H](O)[C@H]2O)c(=O)[nH]1` [Uridine triphosphate (trisodium salt)], in test [1] (Well no.=7810), the remaining activity at 3.75 µM turned out to be 105%. In test [2] (Well no.=7810), the remaining activity at 1.25 µM turned out to be 105%.

Turning to `CCCn1c(=O)c2c(ncn2C)n(CCC)c1=O` [1,3-Dipropyl-7-methylxanthine], the remaining activity at 3.75 µM in test [1] (Well no.=448) is 101%. Besides, the remaining activity at 1.25 µM in test [2] (Well no.=448) was determined as 102%.

As for `CC[C@H](C)[C@@H]([C@@H](CC(=O)N1CCC[C@H]1[C@H](OC)[C@@H](C)C(=O)N[C@@H](Cc1ccccc1)C(=O)OC)OC)N(C)C(=O)[C@@H](NC(=O)[C@@H](NC)C(C)C)C(C)C` [MMAF-OMe] (H-[NMeV]V[Dil][Dolaproine]F-OMe), the remaining activity at 3.75 µM in test [1] (Well no.=7600) was 97.1%. Further, in test [2] (Well no.=7600), the remaining activity at 1.25 µM was determined as 101%.

As for `CCn1c2ccccc2c2cc(CNC)ccc21` [PhiKan 083], the remaining activity at 3.75 µM in test [1] (Well no.=6830) stood at 93.9%. Besides, the remaining activity at 1.25 µM in test [2] (Well no.=6830) stood at 93.5%.

For the compound `C[C@H](CCCC(C)(C)O)[C@H]1CC[C@H]2[C@@H]3CC=C4C[C@@H](O)CC[C@]4(C)[C@H]3CC[C@]12C` [25-Hydroxycholesterol], the remaining activity at 3.75 µM in test [1] (Well no.=6353) turned out to be 101%. Further, in test [2] (Well no.=6353), the remaining activity at 1.25 µM worked out at 101%.

For `O=c1cc(C(Cl)(Cl)Cl)oc2ccc(Cl)cc12` [ST034307], the remaining activity at 3.75 µM in test [1] (Well no.=7185) worked out at 95.4%. In addition, in test [2] (Well no.=7185), the remaining activity at 1.25 µM came out at 103%.

Take `CC(=O)OCC(=O)NCCCOc1cccc(CN2CCCCC2)c1` [Roxatidine (Acetate Hydrochloride)]: the remaining activity at 3.75 µM in test [1] (Well no.=6701) is 105%. Also, the remaining activity at 1.25 µM in test [2] (Well no.=6701) was determined as 102%.

On to `O=C(O)c1ccc(O)c(O)c1` [Protocatechuic acid], for which, in test [1] (Well no.=4047), the remaining activity at 3.75 µM amounted to 101%. Also, the remaining activity at 1.25 µM in test [2] (Well no.=4047) was 99.6%.

As for `COc1cc2ncnc(Nc3ccc(Oc4ccccc4)cc3)c2cc1OC` [Src Kinase Inhibitor I], in test [1] (Well no.=2563), the remaining activity at 3.75 µM was 99.3%. Besides, the remaining activity at 1.25 µM in test [2] (Well no.=2563) worked out at 99.2%.

On to `O=C(O)c1ccccc1C(=O)Nc1ccc(-c2ccccc2)cc1` [Kartogenin], for which the remaining activity at 3.75 µM in test [1] (Well no.=5620) amounted to 96.3%. For the same compound, in test [2] (Well no.=5620), the remaining activity at 1.25 µM came to 91.3%.

Turning to `CC[C@@H](C(=O)[C@@H](C)[C@@H](O)[C@H](C)CCc1ccc(C)c(O)c1C(=O)O)[C@H]1O[C@](CC)([C@H]2CC[C@](O)(CC)[C@H](C)O2)C[C@@H]1C` [Lasalocid A], the remaining activity at 3.75 µM in test [1] (Well no.=3737) was 95.2%. Besides, the remaining activity at 1.25 µM in test [2] (Well no.=3737) was 95%.

For the compound `CN1[C@@H]2CCC[C@H]1C[C@@H](NC(=O)c1nn(C)c3ccccc13)C2` [Granisetron HCl], the remaining activity at 3.75 µM in test [1] (Well no.=5189) stood at 97.5%. Further, in test [2] (Well no.=5189), the remaining activity at 1.25 µM came out at 99.3%.

For the compound `CC(C)(C)n1nc(-c2cccc3ccccc23)c2c(N)ncnc21` [1-Naphthyl PP1 - 1-(1,1-Dimethylethyl)-3-(1-naphthalenyl)-1H-pyrazolo[3,4-d]pyrimidin-4-amine], the remaining activity at 3.75 µM in test [1] (Well no.=2674) turned out to be 98.4%. For the same compound, the remaining activity at 1.25 µM in test [2] (Well no.=2674) came to 98%.

Take `O=C(/C=C/c1cccnc1)NCCCCC1CCN(C(=O)c2ccccc2)CC1` [(2E)-N-[4-(1-benzoyl-4-piperidinyl)butyl]-3-(3-pyridinyl)-2-propenamide hydrochloride hydrate]: the remaining activity at 3.75 µM in test [1] (Well no.=5694) is 92.8%. Besides, the remaining activity at 1.25 µM in test [2] (Well no.=5694) is 97.8%.

For the compound `CC(C)C[C@H](NC(=O)[C@H](CCc1ccccc1)NC(=O)CN1CCOCC1)C(=O)N[C@@H](Cc1ccccc1)C(=O)N[C@@H](CC(C)C)C(=O)[C@@]1(C)CO1` [Carfilzomib (PR-171)], the remaining activity at 3.75 µM in test [1] (Well no.=5173) was 97.1%. Moreover, the remaining activity at 1.25 µM in test [2] (Well no.=5173) was found to be 103%.

For the compound `CN1C(=O)COc2c(C(=O)NC3CN4CCC3CC4)cc(Cl)cc21` (stereo not shown) [Azasetron (hydrochloride)], the remaining activity at 3.75 µM in test [1] (Well no.=8243) turned out to be 96.1%. Further, the remaining activity at 1.25 µM in test [2] (Well no.=8243) was found to be 96.2%.

As for `O=C(O)Cc1ccccc1O` [2-Hydroxyphenylacetic acid], the remaining activity at 3.75 µM in test [1] (Well no.=6307) stood at 107%. Further, the remaining activity at 1.25 µM in test [2] (Well no.=6307) is 104%.

On to `OCCOCCN1CCN(C2=Nc3ccccc3Sc3ccccc32)CC1` [Quetiapine Fumarate], for which, in test [1] (Well no.=1684), the remaining activity at 3.75 µM came to 100%. Moreover, in test [2] (Well no.=1684), the remaining activity at 1.25 µM turned out to be 99.2%.

With `CN(C)C(=O)COC(=O)Cc1ccc(OC(=O)c2ccc(NC(=N)N)cc2)cc1` [Camostat mesylate], in test [1] (Well no.=5405), the remaining activity at 3.75 µM came out at 109%. In addition, in test [2] (Well no.=5405), the remaining activity at 1.25 µM worked out at 101%.

For the compound `O=C(O)CSc1cc(NS(=O)(=O)c2ccc(Br)cc2)c2ccccc2c1O` [UMI-77], the remaining activity at 3.75 µM in test [1] (Well no.=6454) was determined as 93.1%. Moreover, in test [2] (Well no.=6454), the remaining activity at 1.25 µM worked out at 95.1%.

As for `Cc1cc(=O)[nH]c(=S)[nH]1` [Methylthiouracil], the remaining activity at 3.75 µM in test [1] (Well no.=4973) came to 98.5%; in test [1] (Well no.=6148), 102%. Moreover, the results for the remaining activity at 1.25 µM in test [2] (Well no.=4973) and in test [2] (Well no.=6148) were 99.9% and 98.5%, respectively.
